ChEMBL document CHEMBL4130506, “Design, synthesis and biological evaluation of N-(4-alkoxy-3-cyanophenyl)isonicotinamide/nicotinamide derivatives as novel xanthine oxidase inhibitors” (Eur J Med Chem, 2017)

Legend:
[1] = molecular target: T1, Xanthine dehydrogenase/oxidase (Bos taurus, UniProt P80457); assay: Inhibition of bovine xanthine oxidase assessed as reduction in uric acid formation using xanthine as substrate preincubated for 10 mins followed by substrate addition by UV spectrophotometric method
[2] = molecular target: T1, Xanthine dehydrogenase/oxidase; assay: Inhibition of bovine xanthine oxidase assessed as reduction in uric acid formation at 50 uM using xanthine as substrate preincubated for 10 mins followed by substrate addition by UV spectrophotometric method; settings: cattle
[3] = molecular target: T1, Xanthine dehydrogenase/oxidase; assay: Potency index, ratio of allopurinol IC50 to test compound IC50 for bovine xanthine oxidase; settings: cattle
[4] = molecular target: T1, Xanthine dehydrogenase/oxidase; assay: Mixed inhibition of bovine xanthine oxidase assessed as reduction in uric acid formation up to 0.6 uM using xanthine as substrate preincubated for 10 mins followed by substrate addition by Lineweaver-Burk plot analysis; settings: cattle

T1 sequence (P80457 whole entry): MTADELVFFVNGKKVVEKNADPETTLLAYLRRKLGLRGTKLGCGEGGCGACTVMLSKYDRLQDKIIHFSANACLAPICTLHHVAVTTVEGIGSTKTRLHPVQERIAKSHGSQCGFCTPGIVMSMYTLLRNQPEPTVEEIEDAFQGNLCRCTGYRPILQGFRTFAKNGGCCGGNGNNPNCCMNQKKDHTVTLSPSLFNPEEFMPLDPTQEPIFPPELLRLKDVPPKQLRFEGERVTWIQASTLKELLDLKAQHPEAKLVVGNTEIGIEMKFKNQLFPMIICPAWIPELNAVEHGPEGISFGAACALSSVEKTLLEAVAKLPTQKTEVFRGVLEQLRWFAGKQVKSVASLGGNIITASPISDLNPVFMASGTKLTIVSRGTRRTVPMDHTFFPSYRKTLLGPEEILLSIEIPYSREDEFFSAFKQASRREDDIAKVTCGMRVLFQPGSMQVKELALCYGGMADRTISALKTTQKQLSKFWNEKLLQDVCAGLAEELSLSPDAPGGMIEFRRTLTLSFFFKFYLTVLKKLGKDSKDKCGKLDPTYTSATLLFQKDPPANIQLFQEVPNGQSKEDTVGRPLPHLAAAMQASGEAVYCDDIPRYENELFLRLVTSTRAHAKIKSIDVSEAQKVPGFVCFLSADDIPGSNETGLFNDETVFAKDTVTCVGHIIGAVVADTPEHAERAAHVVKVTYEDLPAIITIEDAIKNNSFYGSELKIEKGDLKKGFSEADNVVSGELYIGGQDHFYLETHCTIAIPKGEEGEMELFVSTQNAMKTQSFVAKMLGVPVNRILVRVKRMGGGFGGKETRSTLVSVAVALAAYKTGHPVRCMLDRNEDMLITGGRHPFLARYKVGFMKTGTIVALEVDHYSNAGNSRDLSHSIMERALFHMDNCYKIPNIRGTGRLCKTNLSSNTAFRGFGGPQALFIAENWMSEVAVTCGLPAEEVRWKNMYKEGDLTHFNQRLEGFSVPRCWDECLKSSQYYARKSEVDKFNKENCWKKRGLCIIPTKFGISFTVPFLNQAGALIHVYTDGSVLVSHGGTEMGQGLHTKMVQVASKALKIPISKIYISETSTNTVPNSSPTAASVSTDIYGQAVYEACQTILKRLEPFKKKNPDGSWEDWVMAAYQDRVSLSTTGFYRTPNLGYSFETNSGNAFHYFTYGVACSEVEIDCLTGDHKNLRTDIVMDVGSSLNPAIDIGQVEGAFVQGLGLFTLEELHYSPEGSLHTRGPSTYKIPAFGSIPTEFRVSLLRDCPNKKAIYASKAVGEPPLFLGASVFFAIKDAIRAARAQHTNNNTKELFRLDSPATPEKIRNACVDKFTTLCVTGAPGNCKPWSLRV

SMILES: N#Cc1ccc(COc2ccc(NC(=O)c3ccncc3)cc2C#N)cc1
- IC50 [1]: 2300 nM

SMILES: CCCOc1ccc(NC(=O)c2cccnc2)cc1C#N
- inhibition at 50 µM [2]: < 60%

SMILES: CCCCCCCOc1ccc(NC(=O)c2ccncc2)cc1C#N
- IC50 [1]: 5000 nM

SMILES: CC(C)CCOc1ccc(NC(=O)c2cccnc2)cc1C#N
- IC50 [1]: 35000 nM

SMILES: N#Cc1cc(NC(=O)c2ccccc2)ccc1OCc1ccccc1
- inhibition at 50 µM [2]: < 60%

SMILES: N#Cc1ccccc1COc1ccc(NC(=O)c2ccncc2)cc1C#N
- IC50 [1]: 300 nM
- Ratio IC50 [3]: 28.3
- inhibition (INH) [4]: Active

SMILES: N#Cc1cc(NC(=O)c2ccncc2)ccc1OC1CCCC1
- IC50 [1]: 5700 nM

SMILES: CC(C)Oc1ccc(NC(=O)c2cccnc2)cc1C#N
- inhibition at 50 µM [2]: < 60%

SMILES: CCCCOc1ccc(NC(=O)c2ccccn2)cc1C#N
- inhibition at 50 µM [2]: < 60%

SMILES: CCC(C)Oc1ccc(NC(=O)c2ccncc2)cc1C#N (centres undefined)
- IC50 [1]: 6100 nM

SMILES: CCCCCOc1ccc(NC(=O)c2cccnc2)cc1C#N
- inhibition at 50 µM [2]: < 60%

SMILES: COc1ccccc1COc1ccc(NC(=O)c2ccncc2)cc1C#N
- IC50 [1]: 1800 nM

SMILES: N#Cc1cc(NC(=O)c2ccncc2)ccc1OCc1ccccc1
- IC50 [1]: 900 nM

SMILES: N#Cc1cc(NC(=O)c2cccnc2)ccc1OCc1ccccc1
- IC50 [1]: 32800 nM

SMILES: CCCCCCOc1ccc(NC(=O)c2ccncc2)cc1C#N
- IC50 [1]: 2700 nM

SMILES: CC(C)CCOc1ccc(NC(=O)c2ccncc2)cc1C#N
- IC50 [1]: 2000 nM

SMILES: CCCCCCCOc1ccc(NC(=O)c2cccnc2)cc1C#N
- inhibition at 50 µM [2]: < 60%

SMILES: N#Cc1cc(NC(=O)c2cccnc2)ccc1OCc1ccc(Cl)cc1
- inhibition at 50 µM [2]: < 60%

SMILES: N#Cc1cccc(COc2ccc(NC(=O)c3ccncc3)cc2C#N)c1
- IC50 [1]: 2000 nM

SMILES: N#Cc1cc(NC(=O)c2cccnc2)ccc1OC1CCCC1
- inhibition at 50 µM [2]: < 60%

SMILES: N#Cc1cc(NC(=O)c2ccccn2)ccc1OCc1ccc(Cl)cc1
- inhibition at 50 µM [2]: < 60%

SMILES: CCCCOc1ccc(NC(=O)c2ccncc2)cc1C#N
- IC50 [1]: 2300 nM

SMILES: CCC(C)Oc1ccc(NC(=O)c2cccnc2)cc1C#N (centres undefined)
- inhibition at 50 µM [2]: < 60%

SMILES: N#Cc1cc(NC(=O)c2ccccn2)ccc1OCc1ccccc1
- IC50 [1]: 22600 nM

SMILES: COCCOc1ccc(NC(=O)c2ccncc2)cc1C#N
- inhibition at 50 µM [2]: < 60%

SMILES: CCCCCCCCOc1ccc(NC(=O)c2ccncc2)cc1C#N
- IC50 [1]: 19200 nM

SMILES: CCCCOc1ccc(NC(=O)c2cccnc2)cc1C#N
- inhibition at 50 µM [2]: < 60%

SMILES: COc1ccc(COc2ccc(NC(=O)c3ccncc3)cc2C#N)cc1
- IC50 [1]: 600 nM

SMILES: CCCCCCCCOc1ccc(NC(=O)c2cccnc2)cc1C#N
- inhibition at 50 µM [2]: < 60%

SMILES: CC(C)COc1ccc(NC(=O)c2ccccn2)cc1C#N
- inhibition at 50 µM [2]: < 60%

SMILES: N#Cc1cc(NC(=O)c2ccncc2)ccc1OCc1ccc(Cl)cc1
- IC50 [1]: 800 nM

SMILES: CCCCCOc1ccc(NC(=O)c2ccncc2)cc1C#N
- IC50 [1]: 3000 nM

SMILES: CC(C)Oc1ccc(NC(=O)c2ccncc2)cc1C#N
- IC50 [1]: 9500 nM

SMILES: CCCCCCOc1ccc(NC(=O)c2cccnc2)cc1C#N
- inhibition at 50 µM [2]: < 60%

SMILES: N#Cc1ccc(COc2ccc(NC(=O)c3cccnc3)cc2C#N)cc1
- inhibition at 50 µM [2]: < 60%

SMILES: COCCOc1ccc(NC(=O)c2cccnc2)cc1C#N
- inhibition at 50 µM [2]: < 60%

SMILES: CCCOc1ccc(NC(=O)c2ccncc2)cc1C#N
- IC50 [1]: 3900 nM

SMILES: CC(C)COc1ccc(NC(=O)c2ccncc2)cc1C#N
- IC50 [1]: 1600 nM
- Ratio IC50 [3]: 5.3

SMILES: CC(C)COc1ccc(NC(=O)c2cccnc2)cc1C#N
- inhibition at 50 µM [2]: < 60%

SMILES: CC(C)CCOc1ccc(NC(=O)c2ccccn2)cc1C#N
- inhibition at 50 µM [2]: < 60%

SMILES: N#Cc1cc(-c2n[nH]c(-c3ccncc3)n2)ccn1 [TOPIROXOSTAT]
- IC50 [1]: 15 nM
